Publication PMC7677321, “Purification and biochemical characterization of Hel a 6, a cross-reactive pectate lyase allergen from Sunflower (Helianthus annuus L.) pollen” (Scientific Reports, 2020)

Biological target: T1, Hel a 6 (Helianthus annuus, UniProt A0A251RNJ1)
T1 construct: gene PLY2; natural protein purified from sunflower pollen
T1 sequence (A0A251RNJ1 23-394): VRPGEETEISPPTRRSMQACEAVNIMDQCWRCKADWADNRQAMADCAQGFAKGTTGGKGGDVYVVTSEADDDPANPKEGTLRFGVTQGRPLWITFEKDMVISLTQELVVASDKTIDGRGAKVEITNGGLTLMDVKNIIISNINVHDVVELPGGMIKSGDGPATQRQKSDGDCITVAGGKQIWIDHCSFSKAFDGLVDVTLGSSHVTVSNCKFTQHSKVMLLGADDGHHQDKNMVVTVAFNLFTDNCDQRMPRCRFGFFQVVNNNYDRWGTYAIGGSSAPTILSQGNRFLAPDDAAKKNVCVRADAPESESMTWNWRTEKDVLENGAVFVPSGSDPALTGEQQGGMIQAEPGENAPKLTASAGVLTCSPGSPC
Assay: pectate lyase assay, A235 increase
Format: biochemical
Details: 10 mM salicylic acid; 0.2% polygalacturonic acid, 0.2 mM CaCl2, 25 mM Tris-HCl pH 8.0, 37 °C (methods; results say 40 °C)

## O=C(O)c1ccccc1O [salicylic acid]
  pectate lyase assay, A235 increase: the enzyme activity was ceased entirely when salicylic acid was added to the reaction mix
